Laboratory results published in publication PMC5552691, “Novel giardicidal compounds bearing proton pump inhibitor scaffold proceeding through triosephosphate isomerase inactivation” (Scientific Reports, 2017).

Key:
[1] = biological target: T1, triosephosphate isomerase of G. lamblia (GlTIM) (Giardia intestinalis, UniProt P36186, C202A); assay: Inactivation assay of recombinant GlTIM (C202A variant); type: biochemical; conditions: for Inactivation of GlTIM (in words): 2 hours at 37 °C; for kinact/KI: pH 7.4, read-out: Second-order rate constant of inactivation
T1 construct: His-tag (N, cleaved yes); TEV protease recognition site (N); made in house; host or cells: Escherichia coli
T1 sequence (P36186 whole entry C202A): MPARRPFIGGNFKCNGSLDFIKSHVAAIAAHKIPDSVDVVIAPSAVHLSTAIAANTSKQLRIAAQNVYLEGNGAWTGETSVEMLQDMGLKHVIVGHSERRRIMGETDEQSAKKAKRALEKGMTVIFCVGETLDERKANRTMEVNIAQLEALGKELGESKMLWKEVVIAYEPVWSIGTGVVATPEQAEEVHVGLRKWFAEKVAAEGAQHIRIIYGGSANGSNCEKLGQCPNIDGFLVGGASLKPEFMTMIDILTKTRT
Protocol: We evaluated the effect of compounds incubating the enzyme with each one of them for 2 hours at 37 °C and the IC50 values were then calculated from the residual activity data.
GlTIM (200 µg/mL) was incubated with increasing concentrations of compounds. After 2 hours of incubation at 37 °C, the reactions were stopped by dilution and the remaining activity was determined as described in the material and methods section.
(§1) For all assays we used mutant GlTIM C202A in order to work with the dimeric form of enzyme; this mutant was referred in the paper as GlTIM and was prepared as described before. The recombinant GlTIM containing a His-tag in its NH-terminal together with a recognition region for tobacco […] virus protease, was expressed in Escherichia coli. The GlTIM purification was performed by using IMAC method; after His-tag was removed, the enzyme was stored at 4 °C in a buffer containing 100 mM triethanolamine, 10 mM EDTA, pH 7.4 (TE buffer). […] Mutant of GlTIM C222A and human TIM (HsTIM) were prepared as described before, [33]. Protein content of GlTIM and HsTIM was calculated by using a ε M ^−1cm^−1 of 26,600 and 32,595, respectively. For all assays, the enzymes were freshly prepared with no more of two weeks of storage.
TIM activity was determined in a Cary50 spectrophotometer (Varian) at 25 °C using coupling assay following the conversion of D-glyceraldehyde 3-phosphate to dihydroxyacetone phosphate as described before. The reaction mixture contained TE buffer (pH 7.4) supplemented with 0.2 mM NADH, 1 mM GAP, and 0.9 U of alpha-GDH. The reaction started by adding 5 ng/mL of TIM.
Omeprazole and compounds stock solutions were freshly prepared using 100% DMSO as solvent. […] The reaction was stopped by diluting the enzyme 40,000 times in TE buffer and then, the remaining activity was determined. The second-order rate constants of inactivation were calculated from obtaining the pseudo-first order rate constant (k 1) values at each fixed concentration of compounds by fitting them to an exponential decay. Then, the k 1 values were re-plotted against the employed concentrations of each compound; the second-order rate constant value of inactivation was obtained from the slope of these plots.

[2] = tested on: G. lamblia WB trophozoites; assay: Susceptibility assay of Giardia trophozoites; type: cell-based, Giardia lamblia; conditions: Giardia duodenalis; 48 hours at 37 °C with compound, then 48 hours in compound-free medium; ± standard error
Protocol: The anti-giardiasic ability of compounds was tested in an in vitro. […] Thus, for BHO2 and BHO3 the values (130 and 122 µM, respectively) were around of the half of that obtained for omeprazole (300 µM).
Figure 6 Anti-giardiasic activity of Compounds in trophozoites. Cultures of trophozoites (100,000 trophozoites/mL) were incubated during 48 hours at 37 °C with increasing concentrations of compounds. Afterward, samples were withdrawn and resuspended in a medium free of compounds. The samples were incubated for other 48 hours/37 °C and thereafter, the viability of trophozoites were quantified. The values represent ± standard deviation from three independent experiments.
We used the G. lamblia WB reference isolate in all experiments. The splitting method used to our susceptibility assays is described below. Cultures with 100,000 trophozoites/mL on TYI-S-33 medium were incubated during 48 hours at 37 °C supplemented with increasing concentrations of compounds ranging from 32.5 to 500 µM. Afterward, samples were chilled in ice for 15 minutes, washed with medium and resuspended in 50 µL of medium free of compounds and antibiotic. Then, trophozoites were diluted in 1 mL of medium free of compounds and antibiotic, incubated for 48 hours at 37 °C and then, the viability of trophozoites was manually quantified by using a Neubauer chamber; the viability percent and IC50 was subsequently calculated.

[3] = Solubility (remark in the discussion); type: physicochemical
[4] = biological target: T2, GlTIM (Giardia intestinalis, UniProt P36186, C202A); assay: Quantification of free Cys of derivatized GlTIM (Ellman's reagent); type: biochemical, Giardia lamblia; conditions: for Number of free Cys per monomer after treatment: GlTIM 6 mg/mL (214 µM), compound 1 mM, two hours at 37 °C; for Number of free Cys per monomer after treatment and then DTT: derivatized enzyme incubated with 5 mM DTT during 15 minutes
T2 construct: His-tag (N, cleaved yes); TEV protease recognition site (N); made in house; host or cells: Escherichia coli
T2 sequence (P36186 whole entry C202A): as above
Protocol: We evaluated the first option by determining the residual free Cys after derivatization with compounds and afterwards reducing agent treatment. Thus, 6 mg/mL (214 µM) of GlTIM was incubated with or without each one of compounds (1 mM) during two hours at 37 °C. It is important to remark that at the protein concentration used for this aim, a considerable quantity was precipitated. Therefore, the incubation of the samples was arrested by centrifuging and then filtration through a 3 mL Sephadex G-25 column, and the number of free Cys quantified from the soluble protein. […] In contrast, the number of Cys per monomer obtained for omeprazole, BHO2 and BHO3 treatment was respectively 2.02 ± 0.02, 1.9 ± 0.2 and 2.15 ± 015. […] An aliquot of each derivatized enzyme was withdrawn and incubated with 5 mM DTT during 15 minutes; then, the samples were filtered and the free Cys was again quantified. The number of Cys/monomer was 2.2 ± 0.2, 2,1 ± 0.22 and 1.8 ± 0.18 for omeprazole, BHO2 and BHO3, respectively.
To carry out the experiments, the derivatized GlTIM with different molecules was incubated with 2 mM DTT and then filtered through 3 mL Sephadex G-25 column to remove the unreacted compounds. All spectroscopic assays were carried out at protein concentration of 0.2 mg/mL (7 µM). Cysteine quantification was performed spectrophotometrically using de Ellman’s reagent as described before, [36]. Briefly, 200 µg of GlTIM were suspended in TE buffer supplemented with 5% SDS; after an incubation of 10 min at 25 °C, the enzyme was added to a cuvette containing 500 µL of TE buffer supplemented with 5% SDS and 1 mM DTNB. Cysteine quantification was done following the increase of absorbance at 412 nm, using an ε M ^−1 cm ^−1 of 13,600[36].

[5] = Cytotoxicity assay (MTT) in human fibroblasts; type: cell-based; conditions: human, gingival human fibroblasts, 95% confidence limits in square brackets
Protocol: (§2) The cytotoxic effect of these compounds was also evaluated in mammal cell cultures and their CC50 values calculated and depicted in Table 2.
(§3) We used the cell lines VERO (ATCC:CCL-81) and gingival human fibroblasts (kindly provided by Dra. María Dolores Farfán from Facultad de Odontología, Universidad Nacional Autónoma de México). The assay procedure is described below. Cells were maintained in a DMEM medium supplemented with antibiotic-antimycotic (1X), L-glutamine (1X) and 10% fetal bovine serum. Cells were incubated in 25 mL plastic culture flasks (Nunc) at 37 °C and 5% CO2. After the cell cultures grew to confluence, we determined the cell viability by using Trypan Blue method; then, cells were seeded at 4 × 10^4 cells/well in 100 µL culture medium during 24 hours. […] DMSO was maintained constant at 0.2%; a control was performed by incubating cells with this solvent concentration but in absence of compounds. After incubation time, we measured the cell viability by using MTT (3-(4,5-Dimethyl-2-thiazolyl)-2,5-diphenyl-2H-tetrazolium bromide; Roche Diagnostics) method. Briefly, 10 µL MTT (5 mg/mL) was added to cell cultures and incubated at 37 °C during four hours; then, 100 µL of solution containing 10% SDS and 0.01N HCl was added. Thereafter, the formazan products were spectrophotometrically quantified at 570 nm (Labxystem Uniskan, Manchester). The CC50 (median cytotoxicity concentration) and CI95 (95% confidence interval) values from each experiment were determined from the concentration-percentage plots of cell viability obtained by logistic regression. Statistical analysis was performed using the SPPSS software (version 17.0).

[6] = tested on: VERO cells; assay: Cytotoxicity assay (MTT) in VERO cells; type: cell-based; conditions: for CC50 mammal cells relative to IC50 for trophozoites: mammal cells: human fibroblasts and VERO cells together
Protocol: as §2, §3

[7] = Cytotoxicity assay (MTT) in VERO cells; type: cell-based; conditions: African green monkey, VERO cells (ATCC CCL-81); 24 hours, MTT; 95% confidence limits in square brackets
Protocol: as §2, §3

[8] = biological target: T3, mutant GlTIM C222A (Giardia intestinalis, UniProt P36186, C202A/C222A); assay: Inactivation assay of mutant GlTIM C222A; type: biochemical, Giardia lamblia
T3 construct: made in house
T3 sequence (P36186 whole entry C202A/C222A): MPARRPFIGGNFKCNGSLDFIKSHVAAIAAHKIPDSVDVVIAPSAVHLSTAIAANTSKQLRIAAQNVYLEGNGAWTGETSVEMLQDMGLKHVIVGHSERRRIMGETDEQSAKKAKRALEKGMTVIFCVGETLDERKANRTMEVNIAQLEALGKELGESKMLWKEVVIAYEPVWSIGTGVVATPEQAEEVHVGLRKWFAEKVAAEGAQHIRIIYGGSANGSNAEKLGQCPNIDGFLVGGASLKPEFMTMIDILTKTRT
Protocol: as §1, with “For all assays, the enzymes were freshly prepared with no more of two weeks of storage.” left out
(§4) TIM activity was determined in a Cary50 spectrophotometer (Varian) at 25 °C using coupling assay following the conversion of D-glyceraldehyde 3-phosphate to dihydroxyacetone phosphate as described before. […]
(§5) Omeprazole and compounds stock solutions were freshly prepared using 100% DMSO as solvent. […] The reaction was stopped by diluting the enzyme 40,000 times in TE buffer and then, the remaining activity was determined. The second-order rate constants of inactivation were calculated from obtaining the pseudo-first order rate constant (k 1) values at each fixed concentration of compounds by fitting them to an exponential decay. […]

[9] = biological target: T4, human TIM (HsTIM) (Homo sapiens, UniProt P60174); assay: Inactivation assay of human TIM; type: biochemical
T4 construct: made in house
T4 sequence (P60174 whole entry): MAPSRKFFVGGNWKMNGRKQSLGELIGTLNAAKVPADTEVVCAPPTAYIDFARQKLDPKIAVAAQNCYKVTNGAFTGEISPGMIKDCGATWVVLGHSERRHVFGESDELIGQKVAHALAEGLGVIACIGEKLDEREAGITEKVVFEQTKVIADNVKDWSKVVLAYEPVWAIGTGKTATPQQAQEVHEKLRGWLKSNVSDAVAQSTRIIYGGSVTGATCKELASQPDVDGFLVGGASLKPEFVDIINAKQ
Protocol: as §1, with “For all assays, the enzymes were freshly prepared with no more of two weeks of storage.” left out
as §4, §5

[10] = biological target: T1, triosephosphate isomerase of G. lamblia (GlTIM); conditions: cited from earlier work
[11] = tested on: gingival human fibroblasts; assay: Cytotoxicity assay (MTT) in human fibroblasts; type: cell-based; conditions: 24 hours, 95% confidence limits in square brackets
Protocol: as §2, §3

Row | SMILES | melting point [°C] | Inactivation of GlTIM (in words) [1] | IC50 [2] [µM] | Solubility respect to omeprazole [3] | IC50 [1] [µM] | Increase of reactivity against GlTIM respect to omeprazole [1] | Reversibility of GlTIM inhibition [1] | kinact/KI [1] [M⁻¹ s⁻¹] | Number of free Cys per monomer after treatment [4] [Cys/monomer] | CC50 at 24 h [5] [µM] | CC50 mammal cells relative to IC50 for trophozoites [6] | CC50 at 24 h [7] [µM] | Number of free Cys per monomer after treatment and then DTT [4] [Cys/monomer] | Effect on activity of mutant GlTIM C222A (in words) [8] | Inactivation of HsTIM (in words) [9] | Reversibility of GlTIM inhibition, reported before [10] | Second-order rate constant of inactivation, previously reported [10] [M⁻¹ s⁻¹] | CC50 Human Fibroblasts [11] | CC50 Human Fibroblasts ([11]; listed as omeprazole) | CC50 VERO cells relative to trophozoites cytotoxicity [6] [fold]
1 | Cc1ccc2nc([S+]([O-])Cc3ccccn3)[nH]c2c1 (centres unmarked) [BHO1, 5(6)-methyl-2-[(pyridin-2-ylmethyl)sulfinyl]−1H-benzimidazole] | 121.3 to 122.9 | inactivated scarcely |  |  |  |  |  |  |  |  |  |  |  |  |  |  |  |  |  | 
2 | COc1c(C)cnc(C[S+]([O-])c2nc3ccc(C)cc3[nH]2)c1C (centres unmarked) [BHO2, 2-[(4-methoxy-3,5-dimethylpyridin-2-yl)methylsulfinyl]-5(6)-methyl-1H-benzimidazole] | 221.4 to 222.8 |  | 130 | improved its solubility | 64 | three-fold | irreversibly | 1.6 ± 0.1 | 1.9 ± 0.2 | 5000 | 38- to 61 fold | 8000 |  |  |  |  |  |  |  | 
3 | Cc1ccc2nc([S+]([O-])Cc3nccc(OCC(F)(F)F)c3C)[nH]c2c1 (centres unmarked) [BHO3, 5(6)-Methyl-2-({[3-methyl-4-(2,2,2-trifluoroethoxy)pyridin-2-yl]methyl}sulfinyl]-1H-benzimidazole] | 228.5 to 229.8 |  | 122 ± 1.7 |  | 100 | two-fold | irreversibly | 1.2 ± 0.06 | 2.15 ± 015 | 5500 | 38- to 61 fold | 4700 | 1.8 ± 0.18 |  |  |  |  |  |  | 
4 | COc1ccc2[nH]c([S+]([O-])Cc3ncc(C)c(OC)c3C)nc2c1 (centres unmarked) [Omeprazole, omeprazole, reference compound] |  | inactivated the GlTIM completely | 300 ± 10.2 |  | 225 |  |  | 0.78 ± 0.016 | 2.02 ± 0.02 |  |  | 14000 | 2.2 ± 0.2 | affects marginally | unaffected | irreversible | 0.6 | No effect | did not show cytotoxic effect | 46
